In article PMC10589713 (Proceedings of the National Academy of Sciences of the …, 2023):
Several values for one entry are separate records, joined by “and”; a condition that tells them apart may be missing. Equal values may be shown once.

Tests used:
[1] = tested on: rgDENV2 NS5-G605V; type: cell-based, dengue virus
[2] = tested on: CHIKV; assay: microbe, parasite or virus in culture; type: cell-based; settings: Chikungunya virus, BHK-21
[3] = tested on: LCMV; assay: microbe, parasite or virus in culture; type: cell-based; settings: Mammarenavirus choriomeningitidis
[4] = tested on: IAV H7N9; assay: microbe, parasite or virus in culture; type: cell-based; settings: Influenza A virus, H7N9, MA104
[5] = tested on: DENV2; assay: microbe, parasite or virus in culture; type: cell-based; settings: Dengue virus, DENV2, Huh-7
[6] = tested on: ZIKV; assay: microbe, parasite or virus in culture; type: cell-based; settings: Zika virus, BHK-21, 72 h
[7] = tested on: LACV; assay: organism not typed; type: cell-based; settings: MDBK
[8] = tested on: SARS-CoV-2; assay: microbe, parasite or virus in culture; type: cell-based; settings: Severe acute respiratory syndrome coronavirus 2, VeroE6/TMPRSS2
[9] = tested on: LPHV; assay: microbe, parasite or virus in culture; type: cell-based; settings: Leopards Hill virus
[10] = tested on: V79 cells
[11] = tested on: JUNV; assay: microbe, parasite or virus in culture; type: cell-based; settings: Mammarenavirus juninense, HEK-293T
[12] = mouse, in vivo
[13] = tested on: YFV; assay: microbe, parasite or virus in culture; type: cell-based; settings: Yellow fever virus, BHK-21, 72 h
[14] = tested on: rgDENV2 Wild type; assay: microbe, parasite or virus in culture; type: cell-based; settings: Dengue virus, BHK-21, 96 h
[15] = tested on: DENV2 AG-P10; parameters: species or system AG129 mice; settings: mouse, in vivo
[16] = tested on: SFTSV; assay: microbe, parasite or virus in culture; type: cell-based; settings: Severe fever with thrombocytopenia syndrome virus, MDCK
[17] = tested on: MERS-CoV; assay: microbe, parasite or virus in culture; type: cell-based; settings: Middle East respiratory syndrome-related coronavirus, VeroE6/TMPRSS2
[18] = tested on: IAV H5N1; assay: microbe, parasite or virus in culture; type: cell-based; settings: Influenza A virus, H5N1, A549
[19] = tested on: DENV2; assay: microbe, parasite or virus in culture; type: cell-based; settings: Dengue virus, DENV2, BHK-21, 96 h
[20] = tested on: RVFV; assay: microbe, parasite or virus in culture; type: cell-based; settings: Rift Valley fever virus, MDCK
[21] = molecular target: ZIKV NS5 (RdRp) (Zika virus, UniProt A0A024B7W1); type: biochemical
Chain of ZIKV NS5 (RdRp) (A0A024B7W1 2521-3423 limits assumed): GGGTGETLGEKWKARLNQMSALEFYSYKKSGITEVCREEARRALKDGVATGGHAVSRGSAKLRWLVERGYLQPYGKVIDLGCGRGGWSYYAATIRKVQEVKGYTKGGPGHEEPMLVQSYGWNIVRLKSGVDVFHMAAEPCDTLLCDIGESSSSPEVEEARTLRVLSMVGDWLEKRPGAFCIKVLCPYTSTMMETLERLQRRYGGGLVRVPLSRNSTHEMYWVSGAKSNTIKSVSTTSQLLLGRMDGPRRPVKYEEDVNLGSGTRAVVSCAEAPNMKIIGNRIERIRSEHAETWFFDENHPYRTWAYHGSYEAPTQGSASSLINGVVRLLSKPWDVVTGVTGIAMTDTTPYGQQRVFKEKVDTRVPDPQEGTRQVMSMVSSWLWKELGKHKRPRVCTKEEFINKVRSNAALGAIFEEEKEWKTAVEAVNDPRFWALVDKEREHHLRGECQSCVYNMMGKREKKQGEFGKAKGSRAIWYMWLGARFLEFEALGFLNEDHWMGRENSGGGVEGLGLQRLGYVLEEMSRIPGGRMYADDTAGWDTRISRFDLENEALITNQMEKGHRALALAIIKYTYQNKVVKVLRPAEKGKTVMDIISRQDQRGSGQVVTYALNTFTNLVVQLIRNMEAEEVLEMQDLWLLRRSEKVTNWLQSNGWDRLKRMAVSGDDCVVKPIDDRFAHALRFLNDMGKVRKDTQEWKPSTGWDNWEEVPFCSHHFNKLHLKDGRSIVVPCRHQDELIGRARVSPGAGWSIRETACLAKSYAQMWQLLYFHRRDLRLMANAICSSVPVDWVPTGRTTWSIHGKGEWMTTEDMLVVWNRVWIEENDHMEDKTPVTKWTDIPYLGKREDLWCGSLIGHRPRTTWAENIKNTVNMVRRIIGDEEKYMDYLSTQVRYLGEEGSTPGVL

In the case of `NC(=O)c1nc(F)c[nH]c1=O` [Favipiravir], the Fold change [1] is reported as 2.2.
`NC(=O)c1ncn([C@@H]2O[C@H](CO)[C@@H](O)[C@H]2O)n1` [Ribavirin] showed a Fold change [1] of 2.3.
`O=c1ccn([C@@H]2O[C@H](CO)[C@@H](O)[C@H]2O)c(=S)[nH]1` [s2U, 2-thiouridine] showed an EC50 [2] of 3.8 ± 0.12 µM, an EC50 [3] greater than 100 µM and an EC50 [4] greater than 100 µM. It also gave an EC50 [5] of less than 0.63 µM, an EC90 [5] of 3.4 µM and an EC50 [6] of 3.8 ± 0.96 µM. The EC50 [7] was greater than 100 µM, the EC50 [8] was 2.3 ± 0.43 µM and the EC50 [9] was greater than 100 µM. For the same compound, the EC50 [1] was 5.1 ± 0.69 µM, the “mutagenicity, HPRT (in vitro gene mutation test)” value [10] was “does not have sufficient ability to introduce mutations” and the EC50 [11] was greater than 100 µM. For the same compound, the body weight change [12] was “no BW loss”, the EC50 [13] was 3.2 ± 1.4 µM and the EC50 [14] was 0.86 ± 0.12 µM. For the same compound, the median survival [15] was 12.5 days and > 16 days and 12 days and 13 days, the EC50 [16] was greater than 100 µM and the EC50 [17] was 2.3 µM. It also gave an EC50 [18] greater than 100 µM, an EC50 [19] of 1.5 ± 0.1 µM and an EC50 [20] greater than 100 µM.
For `O=c1ccn([C@@H]2O[C@H](COP(=O)(O)OP(=O)(O)OP(=O)(O)O)[C@@H](O)[C@H]2O)c(=S)[nH]1` [s2UTP, s2U 5′-triphosphate], the “RNA extension catalyzed by ZIKV RdRp” value [21] was “inhibited RNA extension”.
